Data taken from the NIST ThermoML archive (doi:10.1021/je060086x).
± gives the expanded uncertainty stated by the source.

Tests used:
[1] = excess molar enthalpy (molar enthalpy of mixing); xn = mol fraction of the nth substance listed; conditions: 298.15 K, 101 kPa, Liquid
[2] = refractive index (Na D-line) (dimensionless); conditions: 298.15 K; 101.33 kPa; Liquid; Standard Abbe refractometry
[3] = 298.15 K; 101.33 kPa; Liquid

In the case of `CC(O)CO` (stereo not given) [1,2-propanediol] + CO, the excess molar enthalpy ([1]; x1 = 0.0787) is reported as -0.00605 ± 0.000932 kcal/mol, the excess molar enthalpy ([1]; x1 = 0.1565) is reported as -0.01 ± 0.00105 kcal/mol and the excess molar enthalpy ([1]; x1 = 0.2336) is reported as -0.0127 ± 0.00112 kcal/mol. It also gave an excess molar enthalpy ([1]; x1 = 0.3099) of -0.0143 ± 0.0012 kcal/mol, an excess molar enthalpy ([1]; x1 = 0.3885) of -0.0151 ± 0.00122 kcal/mol and an excess molar enthalpy ([1]; x1 = 0.3952) of -0.014 ± 0.00117 kcal/mol. The excess molar enthalpy ([1]; x1 = 0.4998) was -0.0136 ± 0.00117 kcal/mol, the excess molar enthalpy ([1]; x1 = 0.6004) was -0.0124 ± 0.00112 kcal/mol and the excess molar enthalpy ([1]; x1 = 0.7015) was -0.0102 ± 0.00105 kcal/mol. For the same compound, the excess molar enthalpy ([1]; x1 = 0.8026) was -0.00743 ± 0.00098 kcal/mol and the excess molar enthalpy ([1]; x1 = 0.9) was -0.00392 ± 0.00086 kcal/mol.
For `CC(O)CO` (stereo not given) [1,2-propanediol] + CCCO, the excess molar enthalpy ([1]; x1 = 0.1008) was 0.0544 ± 0.00239 kcal/mol, the excess molar enthalpy ([1]; x1 = 0.201) was 0.087 ± 0.00359 kcal/mol and the excess molar enthalpy ([1]; x1 = 0.3036) was 0.105 ± 0.0043 kcal/mol. For the same compound, the excess molar enthalpy ([1]; x1 = 0.4025) was 0.111 ± 0.0043 kcal/mol, the excess molar enthalpy ([1]; x1 = 0.5001) was 0.107 ± 0.0043 kcal/mol and the excess molar enthalpy ([1]; x1 = 0.5049) was 0.109 ± 0.0043 kcal/mol. The excess molar enthalpy ([1]; x1 = 0.6007) was 0.0973 ± 0.00406 kcal/mol, the excess molar enthalpy ([1]; x1 = 0.7015) was 0.0808 ± 0.00335 kcal/mol and the excess molar enthalpy ([1]; x1 = 0.8011) was 0.0589 ± 0.00263 kcal/mol. The excess molar enthalpy ([1]; x1 = 0.9009) was 0.0316 ± 0.00172 kcal/mol.
In the case of `CO` [methanol], the refractive index [2] is reported as 1.327 ± 0.0005 and the mass density [3] is reported as 786.5 ± 0.51 kg/m3.
Work on `CC(O)CO` (stereo not given) [1,2-propanediol] + CCCCCCO yielded an excess molar enthalpy ([1]; x1 = 0.0905) of 0.0833 ± 0.00359 kcal/mol, an excess molar enthalpy ([1]; x1 = 0.1929) of 0.138 ± 0.00526 kcal/mol and an excess molar enthalpy ([1]; x1 = 0.2872) of 0.165 ± 0.00621 kcal/mol. It also gave an excess molar enthalpy ([1]; x1 = 0.3828) of 0.178 ± 0.00669 kcal/mol, an excess molar enthalpy ([1]; x1 = 0.4778) of 0.181 ± 0.00693 kcal/mol and an excess molar enthalpy ([1]; x1 = 0.5711) of 0.173 ± 0.00645 kcal/mol. It also gave an excess molar enthalpy ([1]; x1 = 0.6718) of 0.157 ± 0.00598 kcal/mol, an excess molar enthalpy ([1]; x1 = 0.7021) of 0.146 ± 0.00574 kcal/mol and an excess molar enthalpy ([1]; x1 = 0.7996) of 0.116 ± 0.00454 kcal/mol. For the same compound, the excess molar enthalpy ([1]; x1 = 0.904) was 0.0673 ± 0.00287 kcal/mol.
For `CC(O)CO` (stereo not given) [1,2-propanediol] + CCCCCO, the excess molar enthalpy ([1]; x1 = 0.0914) was 0.0774 ± 0.00335 kcal/mol, the excess molar enthalpy ([1]; x1 = 0.1843) was 0.124 ± 0.00478 kcal/mol and the excess molar enthalpy ([1]; x1 = 0.2821) was 0.15 ± 0.00574 kcal/mol. For the same compound, the excess molar enthalpy ([1]; x1 = 0.3755) was 0.162 ± 0.00621 kcal/mol, the excess molar enthalpy ([1]; x1 = 0.4761) was 0.163 ± 0.00621 kcal/mol and the excess molar enthalpy ([1]; x1 = 0.577) was 0.153 ± 0.00598 kcal/mol. The excess molar enthalpy ([1]; x1 = 0.6082) was 0.146 ± 0.00574 kcal/mol, the excess molar enthalpy ([1]; x1 = 0.7027) was 0.126 ± 0.00502 kcal/mol and the excess molar enthalpy ([1]; x1 = 0.802) was 0.0963 ± 0.00382 kcal/mol. It also gave an excess molar enthalpy ([1]; x1 = 0.9014) of 0.0549 ± 0.00239 kcal/mol.
Work on `CC(O)CO` (stereo not given) [1,2-propanediol] + CCO yielded an excess molar enthalpy ([1]; x1 = 0.0997) of 0.0215 ± 0.00141 kcal/mol, an excess molar enthalpy ([1]; x1 = 0.1948) of 0.0343 ± 0.00182 kcal/mol and an excess molar enthalpy ([1]; x1 = 0.2875) of 0.042 ± 0.00206 kcal/mol. For the same compound, the excess molar enthalpy ([1]; x1 = 0.381) was 0.0453 ± 0.00215 kcal/mol, the excess molar enthalpy ([1]; x1 = 0.4756) was 0.0451 ± 0.00215 kcal/mol and the excess molar enthalpy ([1]; x1 = 0.4952) was 0.0474 ± 0.00222 kcal/mol. It also gave an excess molar enthalpy ([1]; x1 = 0.5972) of 0.0427 ± 0.00208 kcal/mol, an excess molar enthalpy ([1]; x1 = 0.6991) of 0.0353 ± 0.00184 kcal/mol and an excess molar enthalpy ([1]; x1 = 0.8005) of 0.0253 ± 0.00153 kcal/mol. It also gave an excess molar enthalpy ([1]; x1 = 0.9004) of 0.0136 ± 0.00117 kcal/mol.
For `CCCCCCO` [hexan-1-ol], the refractive index [2] was 1.4166 ± 0.0006 and the mass density [3] was 815.2 ± 1.9 kg/m3.
`CC(O)CO` (stereo not given) [1,2-propanediol] + CCCCO gave an excess molar enthalpy ([1]; x1 = 0.1007) of 0.0737 ± 0.00311 kcal/mol, an excess molar enthalpy ([1]; x1 = 0.1971) of 0.114 ± 0.00454 kcal/mol and an excess molar enthalpy ([1]; x1 = 0.2945) of 0.135 ± 0.00526 kcal/mol. It also gave an excess molar enthalpy ([1]; x1 = 0.3853) of 0.143 ± 0.0055 kcal/mol, an excess molar enthalpy ([1]; x1 = 0.4758) of 0.142 ± 0.0055 kcal/mol and an excess molar enthalpy ([1]; x1 = 0.5644) of 0.133 ± 0.00526 kcal/mol. For the same compound, the excess molar enthalpy ([1]; x1 = 0.6047) was 0.124 ± 0.00478 kcal/mol, the excess molar enthalpy ([1]; x1 = 0.7062) was 0.104 ± 0.00406 kcal/mol and the excess molar enthalpy ([1]; x1 = 0.8047) was 0.0773 ± 0.00335 kcal/mol. The excess molar enthalpy ([1]; x1 = 0.9026) was 0.0429 ± 0.00208 kcal/mol.
With `CCCO` [propan-1-ol] the refractive index [2] was 1.3833 ± 0.0005 and the mass density [3] was 799.51 ± 0.24 kg/m3.
`CCO` [ethanol] gave a refractive index [2] of 1.3595 ± 0.0005 and a mass density [3] of 785.15 ± 0.25 kg/m3.
For `CC(O)CO` (stereo not given) [1,2-propanediol], the refractive index [2] was 1.4323 ± 0.0005 and the mass density [3] was 1032.61 ± 0.31 kg/m3.
`CCCCO` [butan-1-ol] showed a refractive index [2] of 1.3974 ± 0.0005 and a mass density [3] of 805.75 ± 0.23 kg/m3.
`CCCCCO` [pentan-1-ol] showed a refractive index [2] of 1.4089 ± 0.0005 and a mass density [3] of 810.88 ± 0.94 kg/m3.
